Reference: patent US20030176511A1, “Compositions and methods for treating cardiovascular disorders” (priority 2000, published 2003)

Columns and labels:
plasma lipids = test: Ex vivo AAPH-induced oxidation of plasma from apoE−/− mice; format: in vivo; conditions: plasma from probucol-treated mice, 5 mM AAPH, 37° C.
Method: Pooled plasma obtained from control (open symbols) or probucol-treated (closed symbols) mice was exposed to 5 mM of the aqueous peroxyl radical generator AAPH and incubated under air at 37° C. […] Data shown are mean±SD of a single oxidation experiment performed in triplicate using pooled plasma. Where error bars are not shown, error is smaller than the symbol.
Plasma was obtained from control and probucol mice and aliquots frozen for subsequent determination of lipids. Separate aliquots were acidified with metaphosphoric acid (5%) to stabilize vitamin C prior to freezing and storage at −80° C. The remainder was pooled appropriately and used for ex vivo oxidation initiated by the peroxyl radical generator AAPH and lipoprotein separation by FPLC with UV280nm detection, as described in J Lipid Res. 1 999;40:1104-1112.
Enhanced resistance of plasma lipoproteins to oxidation is often used as a measure of antioxidant efficacy. Therefore, we examined AAPH-induced oxidation of pooled plasma from control and treated animals. […] These observations can be explained readily on the basis of tocopherol-mediated peroxidation.

[1] = Plasma lipids and antioxidants in apoE−/− mice; format: in vivo
Method: Male C57BL/6J mice, homozygous for the disrupted apoE gene (apoE−/−) were fed standard chow (Lab-Feed, Sydney, Australia) until aged 10 weeks. […] Separate aliquots were acidified with metaphosphoric acid (5%) to stabilize vitamin C prior to freezing and storage at −80° C. The remainder was pooled appropriately and used for ex vivo oxidation initiated by the peroxyl radical generator AAPH and lipoprotein separation by FPLC with UV280nm detection, as described in J Lipid Res. 1 999;40:1104-1112. Lipid-soluble antioxidants and lipids were quantified by HPLC as described in FASEB J. 1999;13:667-675. For ascorbate analysis, frozen acidified samples were thawed, diluted with DPBS to adjust the pH to 7.4 and then immediately subjected to HPLC. Plasma triglycerides were determined enzymatically (Boehringer, Mannheim, Germany).

[2] = test system: atherosclerosis/restenosis in ballooned New Zealand White rabbits; test: Atherosclerosis/restenosis in cholesterol-fed, ballooned New Zealand White rabbits; format: in vivo; conditions: 2% cholesterol diet with 1% probucol for 6 weeks
Method: Aortic endothelial denudation was performed at week 3 by withdrawing an inflated 3F Fogarty balloon embolectomy catheter three times down the length of the aorta. Plasma was obtained from animals as described in Example 1 at the start and end of the study. At the end of the study period, individual aortas were removed and prepared for HPLC analysis as in Example 1. Lipids and antioxidants including probucol and its metabolites, bisphenol and diphenoquinone, were analyzed by RP-HPLC as described previously. Aortas designated for histology were perfusion-fixed with 4% (v/v) formaldehyde and transferred into formalin. Cross-sections (2-3 μm thick) were prepared and stained with Weigert's hematoxylin-van Gieson, and the intima to media ratio determined for three sections.

[3] = test system: lipoprotein oxidation in the vessel wall; test: Aortic lipids, oxidised lipids and antioxidants in apoE−/− mice (HPLC of aortic homogenates); format: in vivo
Method: Male C57BL/6J mice, homozygous for the disrupted apoE gene (apoE−/−) were fed standard chow (Lab-Feed, Sydney, Australia) until aged 10 weeks. […] After bleeding, mice were gravity-perfused for 5 min with DPBS containing 20 μM BHT and 1 mM EDTA (Buffer A) and aortas removed as described in Letters JM, et al (1999). Briefly, hearts, ascending and descending aortas (past the femoral junction) were excised and carefully cleaned. […] Once cleaned, aortas were separated from the heart taking care to include all aortic material while avoiding heart tissue. To obtain sufficient material for HPLC analysis (i.e., 30-40 mg wet weight tissue) it was necessary to pool 7-8 aortas. Separate pools of aortas were prepared for both groups and then immediately frozen in Buffer A and stored at −80° C. until analyses. Pooled aortas were snap frozen in liquid nitrogen, pulverised, resuspended in Buffer A, homogenised and then either treated with metaphosphoric acid (for ascorbate) or extracted and the hexane fraction analysed for lipid-soluble antioxidants, cholesterol (C), choleseteryl esters (CE), lipid hydroperoxides (LOOH) and cholesteryl ester hydroxides (CE-OH) by HPLC as described in Methods Enzymol. 1994;233:469489. LOOH and CE-OH were measured as markers of lipoprotein lipid oxidation, as they are the primary and major oxidation products formed when lipoproteins from apoE−/− mice undergo oxidation. […] All compounds were quantified by peak area comparison with authentic standards, and protein determined.

[4] = test system: atherosclerotic lesions in apoE−/− mice; test: Atherosclerotic lesion cross-section areas (morphometry) in apoE−/− mice; format: in vivo; conditions: lesion area of probucol group relative to controls
Method: Male C57BL/6J mice, homozygous for the disrupted apoE gene (apoE−/−) were fed standard chow (Lab-Feed, Sydney, Australia) until aged 10 weeks. […] The high fat diet (control and probucol-supplemented) was prepared, according to the specifications of the Harlan Teklad diet TD88137. […] After bleeding, mice were gravity-perfused for 5 min with DPBS containing 20 μM BHT and 1 mM EDTA (Buffer A) and aortas removed as described in Letters JM, et al (1999). Briefly, hearts, ascending and descending aortas (past the femoral junction) were excised and carefully cleaned. […] Once cleaned, aortas were separated from the heart taking care to include all aortic material while avoiding heart tissue. To obtain sufficient material for HPLC analysis (i.e., 30-40 mg wet weight tissue) it was necessary to pool 7-8 aortas. Separate pools of aortas were prepared for both groups and then immediately frozen in Buffer A and stored at −80° C. until analyses. Lesions were assessed at four different sites along the aorta, in the aortic root, in the aortic arch, the descending thoracic and in the proximal abdominal aorta, and cross-sections (2-3 μm thick) were prepared and stained with Weigert's hematoxylin-van Gieson.

[5] = test system: coronary restenosis after BA; conditions: probucol given alone, compared to the placebo, MVP trial; cited from earlier work
[6] = Lipids and antioxidants in plasma lipoprotein fractions (size exclusion FPLC) of apoE−/− mice; format: in vivo; conditions: pooled plasma, 1% w/w probucol, 24 weeks
Method: Plasma was collected from individual mice, pooled, diluted 1:10 with buffer used for FPLC and 300 μL subjected to size exclusion chromatography. Chromatograms shown are representative of two analyses of independent pooled plasma samples. The horizontal bars indicate the corresponding fractions collected for each lipoprotein pool. Plasma was obtained from control and probucol mice and aliquots frozen for subsequent determination of lipids. Separate aliquots were acidified with metaphosphoric acid (5%) to stabilize vitamin C prior to freezing and storage at −80° C. The remainder was pooled appropriately and used for ex vivo oxidation initiated by the peroxyl radical generator AAPH and lipoprotein separation by FPLC with UV280nm detection, as described in J Lipid Res. 1 999;40:1104-1112. […] Two consecutive separations each employing 300 μL undiluted plasma were carried out. The corresponding eluents from both injections were collected, pooled according to fractions corresponding to very low-density lipoprotein (VLDL), LDL, and HDL plus mouse serum albumin (see FIG. 3) and then extracted and analysed for lipids and antioxidants.

[7] = test system: tocopherol-mediated peroxidation (TMP); test: Anti-TMP index; format: biochemical
α-tocopheroxyl radical = test: Tocopheroxyl radical attenuating ability (TRAA); format: biochemical; conditions: kobs in presence (+) or absence (−) of test compound
[8] = test system: restenosis in rabbit abdominal aorta after arterial balloon injury; test: Intimal thickening (intima and media ratio) in rabbit aorta after arterial balloon injury; format: in vivo; conditions: rabbits, 0.02% PDA474 in chow for 9 weeks
Method: The intima and media ratio (IMR) was determined by tracing the intimal and medial areas, and dividing their respective total pixel numbers. Higher IMR indicate larger lesions. *Denotes a statistically significant difference with p<0.05.
PDA474 was synthesised and supplied in pure form (99%) by Polysciences, Inc. (400 Valley Road, Warrington, Pa. 18976, USA).
Twelve New Zealand White rabbits were fed a standard rabbit chow (100 g per day) with (n=6) or without (n=6) 0.02 weight % PDA474 (in dry powder form) for 9 weeks. The initial dosage was based on in vitro studies and other useful dosage amounts can be easily derived using a similar approach.
At the end of week 3, the abdominal aorta of all rabbits was injured by ABI. At the end of week 9, the infra-renal abdominal aorta was removed, fixed in 4% buffered formalin, embedded in paraffin, sectioned and stained with Verhoeff Hematoxylin. The intima and media ratio (IMR) was then determined by tracing the intimal and medial areas, and dividing their respective total pixel numbers. Higher IMR indicate larger lesions.

[9] = compared to controls, per protein

CC(C)(Sc1cc(C(C)(C)C)c(O)c(C(C)(C)C)c1)Sc1cc(C(C)(C)C)c(O)c(C(C)(C)C)c1 [Probucol]
probucol level during the oxidation period (plasma lipids): remained unchanged | onset and initial rate of accumulation of CE-O(O)H (plasma lipids; vs control plasma): delayed and decreased respectively | Plasma Triglyceride ([1]; apoE−/− mice, probucol-supplemented diet, 24 weeks): 0.4 ± 0.0 mM | drug converted into bisphenol or diphenoquinone, plasma ([1]; plasma): ~8% | increase of plasma ascorbate ([1]; plasma, probucol treated vs control mice): ~1.4 fold | proportion of aortic lipids that was oxidized [2]: not affected | atherosclerosis ([2]; aortic denudation at week 3): significantly decreased atherosclerosis | content of plasma and aortic lipids, and absolute amounts of oxidized lipids ([2]; vs controls): significantly decreased | drug metabolised to bisphenol or diphenoquinone, aorta ([3]; aorta): ~11% | decrease of aortic concentration of C [3, 9]: 5.6 fold | decrease of aortic concentration of total CoQ (ubiquinones plus ubiquinols) [3, 9]: 2.5 fold | decrease of aortic concentration of vitamin E [3, 9]: 2.9 fold | Treatment effect, Abdominal Aorta [4]: 10% | Treatment effect, Arch [4]: 44% | Treatment effect, Descending Thoracic Aorta [4]: 15% | reduction of angiographic lumen loss [5]: 68% | reduction of need for repeat angioplasty at 6 months [5]: 58% | reduction of restenosis rate per segment [5]: 47% | -TOH in HDL fraction ([6]; HDL plus mouse serum albumin): 1.4 | C20:4 in HDL fraction ([6]; HDL plus mouse serum albumin): 24.0 | C in HDL fraction ([6]; HDL plus mouse serum albumin): 0.12 | Total CoQ in HDL fraction ([6]; HDL plus mouse serum albumin): 0.1 | -TOH in LDL fraction ([6]; LDL): 7.8 | C20:4 in LDL fraction ([6]; LDL): 50.4 | C in LDL fraction ([6]; LDL): 0.96 | Total CoQ in LDL fraction ([6]; LDL): 0.4 | -TOH in VLDL fraction ([6]; VLDL): 0.56 | C18:2 in VLDL fraction ([6]; VLDL): 340 | Total CoQ in VLDL fraction ([6]; VLDL): 0.1

Cc1cc(C(C)(C)C)c(O)c(C(C)(C)C)c1 [BHT]
Anti-TMP index [7]: 8-10 | TRAA (decay of α-tocopheroxyl radical; kobs(+)/kobs(−)) (α-tocopheroxyl radical): Immediate decay

CC(C)(C)c1cc(SSc2cc(C(C)(C)C)c(O)c(C(C)(C)C)c2)cc(C(C)(C)C)c1O [PDA474]
lower IMR in drug-treated animals vs control [8]: 34% | intima and media ratio (IMR) ([8]; ABI at end of week 3, mean±SEM, n=6): 0.76±0.13
